Test results taken from patent US20170354639A1, “DITERPENOID DERIVATIVES AND METHODS OF USE THEREOF” (Biogen MA Inc., priority 2014, published 2017).

Biological target: Nrf2-Keap1 (Homo sapiens, UniProt Q14145)
Assay: DiscoveRx PathHunter Nrf2-Keap1 nuclear translocation functional assay (agonist format)
Type: cell-based
Conditions: in duplicate, agonist mode; for EC50: 10 concentrations, 3-fold serial dilutions, 30 μM top concentration, normalized to CDDO methyl ester and vehicle; for activation at 10 µM: single concentration of 10 μM, normalized to control ligand (CDDO methyl ester) and vehicle
Experimental: DiscoveRx PathHunter® Nrf2-Keap1 Functional Assay
DiscoveRx's Nrf2-Keapl translocation assay was used to profile compounds. Primary Screening was performed in duplicate at a single concentration of 10 μM and EC50 determinations were performed in duplicate at 10 concentrations with 3-fold serial dilutions at a 30 μM top concentration or an otherwise specified top concentration.
The PathHunter® Nuclear Translocation assay detects translocation of a target protein to, or from, the nucleus. In this system, Prolink™ (PK), a small enzyme fragment, is fused to the protein of interest and Enzyme Acceptor (EA) is localized in the nucleus. Activation of the signaling pathway induces the target protein to either transit into the nucleus, thus forcing complementation of the PK and EA fragments, or out of the nucleus, hindering complementation of the fragments.
Cell handling: PathHunter Pathway cell lines were expanded from freezer stocks according to standard procedures. 5000 cells were seeded in Cell Plating Reagent 0 (containing 1% FBS) to a total volume of 20 μL into white walled, 384-well microplates and incubated for the overnight prior to testing.
Agonist format: For Agonist determination, cells were incubated with sample to induce response. Dilution of sample stocks was performed to generate 100× sample in DMSO. Intermediate dilution of sample stocks was performed to generate 5× sample in assay buffer (Cell Plating Reagent 0 containing 1% FBS). 5 μL of 5× sample was added to cells and incubated at room temperature for 6 hours. Vehicle concentration was 1%.
Signal detection: Assay signal was generated through a single addition of 25 μL (100% v/v) of PathHunter Flash Detection reagent, followed by a one hour incubation at room temperature. Microplates were read following signal generation with a PerkinElmer Envision™ instrument for chemiluminescent signal detection.
Data analysis: Compound activity was analyzed using CBIS data analysis suite (ChemInnovation, CA). For agonist mode assays, percentage activity was calculated using the following formula: % Activity=100%×(mean RLU of test sample−mean RLU of vehicle control)/(mean MAX RLU control ligand−mean RLU of vehicle control). For EC50 determination, a control agonist dose response curve was generated in the Keap 1-Nrf2 biosensor assay, data was normalized to the maximal and minimal response observed in the presence of the control ligand and vehicle respectively. CDDO methyl ester was used as a control compound. Compounds were tested in the agonist mode of the assay and data was normalized to the maximal and minimal response observed in the presence of control ligand and vehicle.

Sequence of Nrf2-Keap1 (Q14145 whole entry): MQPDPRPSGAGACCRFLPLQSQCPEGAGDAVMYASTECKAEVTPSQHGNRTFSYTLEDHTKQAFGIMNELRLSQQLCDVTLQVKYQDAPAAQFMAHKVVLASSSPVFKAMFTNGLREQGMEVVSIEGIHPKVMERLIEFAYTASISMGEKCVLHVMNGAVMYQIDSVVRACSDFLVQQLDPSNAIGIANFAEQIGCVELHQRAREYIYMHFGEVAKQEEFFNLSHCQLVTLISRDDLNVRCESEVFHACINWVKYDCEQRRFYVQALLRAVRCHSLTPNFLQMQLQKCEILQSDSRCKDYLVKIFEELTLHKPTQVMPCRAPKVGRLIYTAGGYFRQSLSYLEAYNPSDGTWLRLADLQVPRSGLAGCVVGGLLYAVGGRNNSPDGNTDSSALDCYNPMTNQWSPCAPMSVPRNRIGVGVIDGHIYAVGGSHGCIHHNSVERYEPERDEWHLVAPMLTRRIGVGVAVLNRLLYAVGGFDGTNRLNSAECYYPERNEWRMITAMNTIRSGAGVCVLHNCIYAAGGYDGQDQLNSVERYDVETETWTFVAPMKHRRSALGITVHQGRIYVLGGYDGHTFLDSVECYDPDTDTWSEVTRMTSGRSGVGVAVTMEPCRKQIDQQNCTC

| Structure (SMILES) | EC50 | activation at 10 µM (6 h) | activation at 10 µM (6 hours) |
| --- | --- | --- | --- |
| CO[C@@H]1CC[C@@]2(C)[C@H](C/C=C3/C(=O)OC[C@H]3O)C(C)=CC[C@@H]2[C@H]1C [Example 17, (S,E)-4-hydroxy-3-(2-((1R,4aR,5R,6R,8aR)-6-methoxy-2,5,8a-trimethyl-1,4,4a,5,6,7,8,8a-octahydronaphthalen-1-yl)ethylidene)dihydrofuran-2(3H)-one] | 500 to 2000 nM | 51 to 100% | – |
| C=C1CC[C@@H]2[C@]3(C)COS(=O)O[C@@H]3CC[C@@]2(C)[C@@H]1C/C=C1/C(=O)OCC1NC=O (stereo partly drawn) [Example 19, N-((E)-4-(2-((4aR,6aS,7R,10aS,10bR)-6a,10b-dimethyl-8-methylene-3-oxidodecahydro-1H-naphtho[2,1-d][1,3,2]dioxathiin-7-yl)ethylidene)-5-oxotetrahydrofuran-3-yl)formamide] | – | 51 to 100% | – |
| C=C1CC[C@@H]2[C@]3(C)COS(=O)O[C@@H]3CC[C@@]2(C)[C@@H]1C/C=C1\C(=O)OC[C@@H]1NC=O (stereo partly drawn) [Example 29, N-((3R,Z)-4-(2-((4aR,6aS,7R,10aS,10bR)-6a,10b-dimethyl-8-methylene-3-oxidodecahydro-1H-naphtho [2,1-d][1,3,2]dioxathiin-7-yl)ethylidene)-5-oxotetrahydrofuran-3-yl)formamide] | – | 51 to 100% | – |
| C=C1CC[C@H]2[C@@](C)(CCC3=NOC[C@]32C)[C@@H]1C/C=C1/C(=O)OC[C@H]1O [Example 11, (S,E)-3-(2-((5aS,6R,9aS,9bS)-5a,9b-dimethyl-7-methylene-1,4,5,5a,6,7,8,9,9a,9b-decahydronaphtho[2,1-c]isoxazol-6-yl)ethylidene)-4-hydroxydihydrofuran-2(3H)-one] | 500 to 2000 nM | > 100% | – |
| C=C1CC[C@@H]2[C@]3(C)CO[S@@](=O)O[C@@H]3CC[C@@]2(C)[C@@H]1C/C=C1/C(=O)OC[C@H]1O [Example 9, (S,E)-3-(2-((3R,4aR,6aS,7R,10aS,10bR)-6a,10b-dimethyl-8-methylene-3-oxidodecahydro-1H-naphtho[2,1-d][1,3,2]dioxathiin-7-yl)ethylidene)-4-hydroxydihydrofuran-2(3H)-one] | 500 to 2000 nM | – | – |
| CC1(C)CCC[C@@]2(C)[C@H]1CCC1(CC1)[C@@H]2C/C=C1\C(=O)OCC1O (stereo partly drawn) [Example 23, (Z)-4-hydroxy-3-(2-((1′S,4a′S,8a′S)-5′,5′,8a′-trimethyloctahydro-1′H-spiro[cyclopropane-1,2′-naphthalen]-1′-yl)ethylidene)dihydrofuran-2(3H)-one] | – | 51 to 100% | – |
| CC1(C)CCC[C@@]2(C)[C@H]1CCC1(CC1)[C@@H]2C/C=C1\C(=O)OC[C@H]1NC=O [Example 25, N—((S,Z)-5-oxo-4-(2-((1′S,4a′S,8a′S)-5′,5′,8a′-trimethyloctahydro-1′H-spiro[cyclopropane-1,2′-naphthalen]-1′-yl)ethylidene)tetrahydrofuran-3-yl)formamide] | – | 51 to 100% | – |
| C=C1CC[C@@H]2[C@@H](C)[C@H](O)CC[C@@]2(C)[C@@H]1C/C=C1/C(=O)OC[C@H]1O [Example 2, (S,E)-4-hydroxy-3-(2-((1R,4aR,5R,6R,8aR)-6-hydroxy-5,8a-dimethyl-2-methylenedecahydronaphthalen-1-yl)ethylidene)dihydrofuran-2(3H)-one] | < 500 nM | > 100% | – |
| C=C1CC[C@@H]2[C@]3(C)COCO[C@@H]3CC[C@@]2(C)[C@@H]1C/C=C1/C(=O)OCC1NC(=O)COC (single isomer, unassigned) [Example 46A] | > 2000 nM | – | – |
| CC(=O)N[C@@H]1COC(=O)/C1=C\C[C@H]1C2(CC[C@H]3C(C)(C)CCC[C@@]31C)CC2 [Example 27, N—((S,Z)-5-oxo-4-(2-((1′S,4a′S,8a′S)-5′,5′,8a′-trimethyloctahydro-1′H-spiro[cyclopropane-1,2′-naphthalen]-1′-yl)ethylidene)tetrahydrofuran-3-yl)acetamide] | – | 30 to 50% | – |
| CC(=O)N[C@@H]1COC(=O)/C1=C/C[C@H]1C2(CC[C@H]3C(C)(C)CCC[C@@]31C)CC2 [Example 26, N—((S,E)-5-oxo-4-(2-((1′S,4a′S,8a′S)-5′,5′,8a′-trimethyloctahydro-1′H-spiro[cyclopropane-1,2′-naphthalen]-1′-yl)ethylidene)tetrahydrofuran-3-yl)acetamide] | – | 30 to 50% | – |
| C=C1CC[C@@H]2[C@]3(C)COS(=O)O[C@@H]3CC[C@@]2(C)[C@@H]1C/C=C1/C(=O)OCC1NC(=O)COC (stereo partly drawn) [Example 40A, N-((E)-4-(2-((4aR,6aS,7R,10aS,10bR)-6a,10b-dimethyl-8-methylene-3-oxidodecahydro-1H-naphtho[2,1-d][1,3,2]dioxathiin-7-yl)ethylidene)-5-oxotetrahydrofuran-3-yl)-2-methoxyacetamide] | – | – | 51 to 100% |
| C=C1CC[C@@H]2[C@@H](C)[C@@](O)(C(F)(F)F)CC[C@@]2(C)[C@@H]1C/C=C1/C(=O)OCC1NC=O (single isomer, unassigned) [Example 43B] | < 500 nM | – | – |
| C=C1CC[C@@H]2[C@]3(C)COCO[C@@H]3CC[C@@]2(C)[C@@H]1C/C=C1/C(=O)OCC1NC(C)=O (single isomer, unassigned) [Example 45A] | > 2000 nM | – | – |
| C=C1CC[C@@H]2[C@@H](C)[C@H](NC)CC[C@@]2(C)[C@@H]1C/C=C1/C(=O)OC[C@H]1O [Example 15, (4S,E)-3-(2-((1R,4aR,5R,8aR)-5,8a-dimethyl-6-(methylamino)-2-methylenedecahydronaphthalen-1-yl)ethylidene)-4-hydroxydihydrofuran-2(3H)-one] | 500 to 2000 nM | 51 to 100% | – |
| C=C1CC[C@@H]2[C@]3(C)COCO[C@@H]3CC[C@@]2(C)[C@@H]1C/C=C1/C(=O)OCC1NC(C)=O (single isomer, unassigned) [Example 45B] | > 2000 nM | – | – |
| C=C1CC[C@@H]2[C@@H](C)[C@](O)(C(F)(F)F)CC[C@@]2(C)[C@@H]1C/C=C1/C(=O)OC[C@H]1O [Example 42A, (S,E)-4-hydroxy-3-(2-((1R,4aR,5R,6S,8aR)-6-hydroxy-5,8a-dimethyl-2-methylene-6-(trifluoromethyl)decahydronaphthalen-1-yl)ethylidene)dihydrofuran-2(3H)one] | < 500 nM | – | – |
| C=C1CC[C@@H]2[C@]3(C)COS(=O)O[C@@H]3CC[C@@]2(C)[C@@H]1C/C=C1/C(=O)OCC1NC(=O)COC (single isomer, unassigned) [Example 40B] | 500 to 2000 nM | – | > 100% |
| C=C1CC[C@@H]2[C@]3(C)CO[S@](=O)O[C@@H]3CC[C@@]2(C)[C@@H]1C/C=C1/C(=O)OC[C@@H]1O [Example 10, (R,E)-3-(2-((3S,4aR,6aS,7 R,10aS,10bR)-6a,10b-dimethyl-8-methylene-3-oxidodecahydro-1H-naphtho[2,1-d][1,3,2]dioxathiin-7-yl)ethylidene)-4-hydroxydihydrofuran-2(3H)-one] | – | 51 to 100% | – |
| CC1(C)CCC[C@@]2(C)[C@H]1CCC1(CC1)[C@@H]2CC/C=C1\C(=O)OC[C@H]1NS(C)(=O)=O [Example 38, N—((S,Z)-5-oxo-4-(3-((1′S,4a′S,8a′S)-5′,5′,8a′-trimethyloctahydro-1′H-spiro[cyclopropane-1,2′-naphthalen]-1′-yl)propylidene)tetrahydrofuran-3-yl)methanesulfonamide] | – | 30 to 50% | – |
